Here are results for 36 molecules from patent US20090325964A1, “Piperazine Metabotropic Glutamate Receptor 5 (MGLUR5) Negative Allosteric Modulators For Anxiety/Depression” (Wyeth, priority 2008, published 2009).

pIC50, pKi: −log10 of the molar value. Like-named read-outs stand apart in the source and are kept apart here.

The target of this experiment is T1, rat mGluR5 receptor (Rattus norvegicus, UniProt P31424).
T1 construct: expressed in transfected cells; host or cells: HEK-293
The experiment is described as follows: [3H]-MPEP displacement binding assay, HEK-293 cell membranes expressing rat mGluR5. Conditions: for pIC50: no Ki given, read-out: IC50 (printed in the Median Ki column instead of a Ki); for pKi: read-out: Median Ki. A digest of the protocol: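 Membranes from HEK-293 cells expressing rat mGluR5 (12-25 μg protein), incubated 60 min at room temperature with 4 nM [3H]-MPEP in 50 mM Tris pH 7.5, then filtered. Nonspecific binding defined with 10 μM MPEP.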

The mark [1] stands for this setting: [3H]-MPEP displacement, rat mGluR5.
Where [2] appears, read: 1 h, single point, @ 10 μm compound, Table 1A, read-out: PCT INHIB (%) @ 10 μm.
The mark [3] stands for this setting: @ 10 μM compound, Biological Activity, Table 2A, read-out: PCT INHIB (%) @ 10 μM.

T1 sequence (P31424 21-1203): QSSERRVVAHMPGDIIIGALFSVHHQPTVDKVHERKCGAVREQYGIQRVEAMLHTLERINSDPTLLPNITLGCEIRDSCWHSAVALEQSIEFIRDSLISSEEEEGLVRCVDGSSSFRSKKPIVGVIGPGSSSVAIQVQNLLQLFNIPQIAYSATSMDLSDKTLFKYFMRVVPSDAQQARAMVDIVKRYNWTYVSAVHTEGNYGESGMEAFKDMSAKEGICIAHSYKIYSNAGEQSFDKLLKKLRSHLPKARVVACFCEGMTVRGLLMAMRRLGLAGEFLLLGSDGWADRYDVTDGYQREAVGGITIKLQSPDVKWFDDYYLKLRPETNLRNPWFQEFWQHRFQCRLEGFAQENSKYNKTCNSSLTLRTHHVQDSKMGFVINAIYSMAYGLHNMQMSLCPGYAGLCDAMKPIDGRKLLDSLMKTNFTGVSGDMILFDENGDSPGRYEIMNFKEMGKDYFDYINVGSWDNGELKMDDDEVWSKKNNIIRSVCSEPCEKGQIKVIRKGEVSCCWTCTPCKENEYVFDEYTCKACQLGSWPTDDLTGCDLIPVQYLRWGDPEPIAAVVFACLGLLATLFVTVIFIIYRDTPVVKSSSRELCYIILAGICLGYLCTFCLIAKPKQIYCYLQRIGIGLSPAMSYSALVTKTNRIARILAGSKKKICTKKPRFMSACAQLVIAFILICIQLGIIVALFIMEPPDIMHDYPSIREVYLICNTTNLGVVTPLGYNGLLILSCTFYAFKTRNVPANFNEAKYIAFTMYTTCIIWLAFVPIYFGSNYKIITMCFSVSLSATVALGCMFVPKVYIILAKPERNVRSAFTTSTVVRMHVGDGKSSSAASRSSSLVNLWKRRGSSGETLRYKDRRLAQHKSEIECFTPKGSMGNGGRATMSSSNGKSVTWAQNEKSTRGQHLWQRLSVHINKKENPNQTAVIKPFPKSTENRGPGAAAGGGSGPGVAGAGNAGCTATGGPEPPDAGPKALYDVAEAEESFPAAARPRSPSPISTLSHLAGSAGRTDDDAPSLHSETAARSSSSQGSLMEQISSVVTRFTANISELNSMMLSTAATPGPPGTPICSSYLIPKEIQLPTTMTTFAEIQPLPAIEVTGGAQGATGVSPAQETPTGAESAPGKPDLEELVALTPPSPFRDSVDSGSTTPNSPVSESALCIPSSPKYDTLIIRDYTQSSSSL

A word on the pIC50: it is the IC50 on a negative log10 scale, so that one unit is a factor of ten. As for `COc1ccc(C(=O)N2CCN(c3ncccc3Cl)CC2)cc1C#Cc1cccc(OC(F)(F)F)c1` [Compound 344, 1-(3-chloropyridin-2-yl)-4-(4-methoxy-3-{[3-(trifluoromethoxy)phenyl]ethynyl}benzoyl)piperazine], the pIC50 under setting [1] was under 5.00.
By pKi is commonly meant the Ki on a negative log10 scale, so that one unit is a factor of ten. `CCc1cccc(OCc2cccc(C(=O)N3CCN(c4ccccn4)CC3)c2)c1` [Compound 166, 1-{3-[(3-ethylphenoxy)methyl]benzoyl}-4-pyridin-2-ylpiperazine]: the pKi ([3H]-MPEP 4 nM, Table 4A) was under 5.00.
For the molecule `Cc1ccc(C(=O)N2CCN(c3ccccn3)CC2)cc1C#Cc1ccncc1` [Compound 48, 1-[4-methyl-3-(pyridin-4-ylethynyl)benzoyl]-4-pyridin-2-ylpiperazine], the inhibition at 10 µM under setting [2] was 49%.
In the case of `COc1ccc(C(=O)N2CCN(S(=O)(=O)c3ccc(Cl)c(Cl)c3)CC2)cc1C#Cc1ccccn1` [Compound 239, 1-[(3,4-dichlorophenyl)sulfonyl]-4-[4-methoxy-3-(pyridin-2-ylethynyl)benzoyl]piperazine], the pKi under setting [1] was 5.85.
The same measure, in the same setting: then `COc1ccc(C(=O)N2CCN(c3ncccc3Cl)CC2)cc1C#Cc1ccccc1F` [Compound 351, 1-(3-chloropyridin-2-yl)-4-{3-[(2-fluorophenyl)ethynyl]-4-methoxybenzoyl}piperazine], with 5.37; and `COc1ccc(C(=O)N2CCCN(c3cccc(C)n3)CC2)cc1C#Cc1ccccn1` [Compound 211, 1-[4-methoxy-3-(pyridin-2-ylethynyl)benzoyl]-4-(6-methylpyridin-2-yl)-1,4-diazepane], with 6.21.
For the molecule `O=C(c1ccnc(C#Cc2ccccc2)c1)N1CCN(c2ccc(C(F)(F)F)cn2)CC1` [Compound 123, 1-[2-(phenylethynyl)isonicotinoyl]-4-[5-(trifluoromethyl)pyridin-2-yl]piperazine], the inhibition at 10 µM under setting [3] worked out at 0%.
Still for that read-out and setting: under `CN1CCN(C(=O)c2cccc(C#Cc3ccccc3)c2)CC1` [Compound 70, 1-methyl-4-[3-(phenylethynyl)benzoyl]piperazine] stands 0%.
With `COc1ccc(C(=O)N2CCN(c3nc4ccc([N+](=O)[O-])cc4s3)CC2)cc1C#Cc1ccccn1` [Compound 282, 2-{4-[4-methoxy-3-(pyridin-2-ylethynyl)benzoyl]piperazin-1-yl}-6-nitro-1,3-benzothiazole], under setting [1], the pIC50 was under 5.00.
`COc1ccc(C(=O)N2CCN(c3sc(S(N)(=O)=O)cc3[N+](=O)[O-])CC2)cc1C#Cc1ccccn1` [Compound 254, 5-{4-[4-methoxy-3-(pyridin-2-ylethynyl)benzoyl]piperazin-1-yl}-4-nitrothiophene-2-sulfonamide]: under setting [1], the pKi is 6.97.
On to `Cc1cc(C)nc(N2CCN(C(=O)c3cncc(C#Cc4ccccc4)c3)CC2)n1` [Compound 136, 4,6-dimethyl-2-(4-{[5-(phenylethynyl)pyridin-3-yl]carbonyl}piperazin-1-yl)pyrimidine], for which the inhibition at 10 µM under setting [3] is 0%.
In the case of `COc1ccc(C(=O)N2CCN(c3cccc(C(F)(F)F)n3)CC2)cc1C#Cc1ccccc1` [Compound 117, 1-[4-methoxy-3-(phenylethynyl)benzoyl]-4-[6-(trifluoromethyl)pyridin-2-yl]piperazine], under setting [3], the inhibition at 10 µM was found to be 35%.
On to `O=C(c1ccnc(C#Cc2ccccc2)c1)N1CCN(c2ncccn2)CC1` [Compound 120, 2-{4-[2-(phenylethynyl)isonicotinoyl]piperazin-1-yl}pyrimidine], for which the inhibition at 10 µM under setting [3] was determined as 49%. For the setting “Biological Activity, Table 2A”, the pKi was 5.54.
Consider `COc1cccc(C(=O)N2CCN(C(=O)c3ccc(OC)c(C#Cc4ccccn4)c3)CC2)c1` [Compound 264, 1-(3-methoxybenzoyl)-4-[4-methoxy-3-(pyridin-2-ylethynyl)benzoyl]piperazine], for which the pKi under setting [1] is 6.97.
In the case of `O=C(c1cccc(C#Cc2ccccn2)c1)N1CCN(c2cnccn2)CC1` [Compound 94, 2-{4-[3-(pyridin-2-ylethynyl)benzoyl]piperazin-1-yl}pyrazine], the inhibition at 10 µM under setting [3] came out at 79%. For the same molecule, where the note is “Biological Activity, Table 2A”, the pKi is 6.40.
Take `Cc1c(C#Cc2ccccc2)cccc1C(=O)N1CCN(c2ccccn2)CC1` [Compound 91, 1-[2-methyl-3-(phenylethynyl)benzoyl]-4-pyridin-2-ylpiperazine]: the inhibition at 10 µM under setting [3] worked out at 18%.
On to `COc1ccc(C(=O)N2CCN(c3ccccn3)CC2)cc1C#Cc1cccc(O)c1` [Compound 33, 3-({2-methoxy-5-[(4-pyridin-2-ylpiperazin-1-yl)carbonyl]phenyl}ethynyl)phenol], for which the pKi was 6.27. For the same molecule, the inhibition at 10 µM under setting [2] came out at 82%.
`COc1ccc(C(=O)N2CCN(S(=O)(=O)c3c(C)noc3C)CC2)cc1C#Cc1ccccn1` [Compound 270, 1-[(3,5-dimethylisoxazol-4-yl)sulfonyl]-4-[4-methoxy-3-(pyridin-2-ylethynyl)benzoyl]piperazine]: the pKi under setting [1] is 5.81.
For the molecule `Cc1ccc(C(=O)N2CCN(c3cnccn3)CC2)cc1C#Cc1ccccn1` [Compound 68, 2-{4-[4-methyl-3-(pyridin-2-ylethynyl)benzoyl]piperazin-1-yl}pyrazine], the negative logarithm of the Ki (pKi) is 8.05.
In the case of `O=C(c1cccc(C#Cc2ccccc2)c1)N1CCN(c2cnccn2)CC1` [Compound 86, 2-{4-[3-(phenylethynyl)benzoyl]piperazin-1-yl}pyrazine], the inhibition at 10 µM under setting [3] is 85%.
As for `O=C(c1ccc(F)c(C#Cc2ccccn2)c1)N1CCN(c2ncccc2Cl)CC1` [Compound 315, 1-(3-chloropyridin-2-yl)-4-[4-fluoro-3-(pyridin-2-ylethynyl)benzoyl]piperazine], the pKi under setting [1] was 6.57.
In the case of `O=C(c1ccnc(C#Cc2ccccc2)c1)N1CCN(c2ccccn2)CC1` [Compound 121, 1-[2-(phenylethynyl)isonicotinoyl]-4-pyridin-2-ylpiperazine], the inhibition at 10 µM under setting [3] is 72%. Also, under “Biological Activity, Table 2A”, the pKi was 5.95.
Turning to `O=C(c1cccc(C#Cc2ccccn2)c1)N1CCN(c2nnn[nH]2)CC1` [Compound 97, 1-[3-(pyridin-2-ylethynyl)benzoyl]-4-(1H-tetrazol-5-yl)piperazine], the inhibition at 10 µM under setting [3] was found to be 0%.
`CCOc1ccc(C(=O)N2CCN(c3ncc(Cl)cc3Cl)CC2)cc1C#Cc1ccccn1` [Compound 319, 1-(3,5-dichloropyridin-2-yl)-4-[4-ethoxy-3-(pyridin-2-ylethynyl)benzoyl]piperazine]: the pKi under setting [1] is 6.19.
Consider `O=C(c1cncc(C#Cc2ccccc2)c1)N1CCN(c2ncccn2)CC1` [Compound 130, 2-(4-{[5-(phenylethynyl)pyridin-3-yl]carbonyl}piperazin-1-yl)pyrimidine], for which the inhibition at 10 µM under setting [3] amounted to 47%.
Take `Cc1cc(C)nc(N2CCN(C(=O)c3cccc(C#Cc4ccccn4)c3)CC2)n1` [Compound 100, 4,6-dimethyl-2-{4-[3-(pyridin-2-ethynyl)benzoyl]piperazin-1-yl}pyrimidine]: the inhibition at 10 µM under setting [3] was 55%. Further, under “Biological Activity, Table 2A”, the pKi is 5.66.
For the molecule `COc1ccc(C(=O)N2CCN(Cc3c(Cl)cccc3Cl)CC2)cc1C#Cc1ccccn1` [Compound 277, 1-(2,6-dichlorobenzyl)-4-[4-methoxy-3-(pyridin-2-ylethynyl)benzoyl]piperazine], the pKi under setting [1] was 6.57.
On the same count and under the same terms, under `O=C(c1ccc(OCC2CC2)c(C#Cc2ccccn2)c1)N1CCN(c2ncccn2)CC1` [Compound 325, 2-(4-{[4-(cyclopropylmethoxy)-3-(pyridin-2-ylethynyl)phenyl]carbonyl}piperazin-1-yl)pyrimidine] stands 5.87.
As for `COc1ccc(C(=O)N2CCN(c3ccccn3)CC2)cc1C#Cc1ccncc1` [Compound 45, 1-[4-methoxy-3-(pyridin-4-ylethynyl)benzoyl]-4-pyridin-2-ylpiperazine], the pKi is 6.00. In addition, under setting [2], the inhibition at 10 µM is 68%.
For the molecule `O=C(c1cccc(COc2ccccc2)c1)N1CCN(c2ccccn2)CC1` [Compound 171, 1-[3-(phenoxymethyl)benzoyl]-4-pyridin-2-ylpiperazine], the pKi ([3H]-MPEP 4 nM, Table 4A) was under 5.00.
In the case of `COc1ccc(C(=O)N2CCN(c3cc(C)ccc3C)CC2)cc1C#Cc1ccccn1` [Compound 242, 1-(2,5-dimethylphenyl)-4-[4-methoxy-3-(pyridin-2-ylethynyl)benzoyl]piperazine], under setting [1], the pKi was 6.00.
Turning to `Cc1cc(C)nc(N2CCN(C(=O)c3ccnc(C#Cc4ccccc4)c3)CC2)n1` [Compound 140, 4,6-dimethyl-2-{4-[2-(phenylethynyl)isonicotinoyl]piperazin-1-yl}pyrimidine], the inhibition at 10 µM under setting [3] is 37%.
As for `COc1ccc(C(=O)N2CCN(S(=O)(=O)c3ccc(Br)s3)CC2)cc1C#Cc1ccccn1` [Compound 269, 1-[(5-bromo-2-thienyl)sulfonyl]-4-[4-methoxy-3-(pyridin-2-ylethynyl)benzoyl]piperazine], under setting [1], the pKi is 7.31.
`COc1cccc(C#Cc2cccc(CN3CCN(c4ccccn4)CC3)c2)c1` [Compound 181, 1-{3-[(3-methoxyphenyl)ethynyl]benzyl}-4-pyridin-2-ylpiperazine]: the inhibition at 10 µM (single point, @ 10 μM compound, Table 6, read-out: PCT INHIB (%) @ 10 μM) is 0%.
`Cc1cccc(C)c1N1CCN(C(=O)c2cccc(C#Cc3ccccc3)c2)CC1` [Compound 78, 1-(2,6-dimethylphenyl)-4-[3-(phenylethynyl)benzoyl]piperazine]: the inhibition at 10 µM under setting [3] was 53%. The negative logarithm of the Ki (pKi) (Biological Activity, Table 2A) is under 5.00.
Regarding `COc1cccc(N2CCN(C(=O)c3cccc(C#Cc4ccccc4)c3)CC2)c1` [Compound 81, 1-(3-methoxyphenyl)-4-[3-(phenylethynyl)benzoyl]piperazine], the inhibition at 10 µM under setting [3] was 78%. Besides, the pKi (Biological Activity, Table 2A) was 5.47.
